Measurements published in patent US11723886B2, “Targeting ocular diseases with novel APE1/Ref-1 inhibitors” (Indiana University Research and Technology Corporation, priority 2018, dated 2023).

Experiments:
NF-κB p65 = NF-κB p65 nuclear translocation assay in TNF-α stimulated HRECs; type: cell-based, human; settings: 10 ng/ml TNF-α
Experimental: NF-κB p65 nuclear translocation assay. The NF-κB nuclear translocation assay was performed by seeding 30,000 HRECs/well on an 8-well chamber slide coated with attachment factors. The cells were grown in EGM-2 medium overnight before treating with indicated concentrations of APX2009 and APX2014, or 10 μM BAY 11-7082 (Sigma, St. Louis, Mo.) as a positive control NF-κB inhibitor. After 17 hours incubation, the media was replaced with EBM-2 (minimal medium) with indicated concentrations of compound or DMSO for 1 hour. The cells were then stimulated with 10 ng/ml TNF-α in EBM-2 for 20 minutes at 37° C. to activate NF-κB. Cells were then fixed in 4% paraformaldehyde and permeabilized using 0.5% Triton X-100 solution prepared in PBS. The cells were incubated with a monoclonal antibody against NF-κB p65 (sc-8008; Santa Cruz, Santa Cruz, Calif.) (1:50) overnight at 4° C., followed by Alexafluor 555 goat anti-mouse secondary antibody (1:2000) for one hour. The cells were counter-stained with Hoechst 33342 for nuclear staining and then mounted using Everbrite hardset mounting medium. The cells were imaged using a Zeiss AxioImager D2 microscope.

HRECs [1] = experiment: TUNEL apoptosis assay in HRECs; type: cell-based, human; settings: anti-proliferative doses
Experimental: (§1) EdU incorporation, Ki-67 Staining and TUNEL. These assays were carried out as described previously (Basavarajappa et al., PLoS One 9:e95694 (2014); Basavarajappa et al., EMBO Mol Med 9:786-801 (2017)) with the exception of using chamber slides, not coverslips. Briefly, cells (30,000 per well) were seeded on 8-well chamber slides coated with attachment factors and allowed to attach overnight. Cells were treated with the indicated compound concentrations for 17 hours (overnight). To assay proliferation, cells were incubated with EdU in complete media for 8 hours at 37° C. Cells were then fixed in 4% paraformaldehyde for 20 minutes and permeabilized using 0.25% Triton X-100 prepared in PBS. Cells were incubated with a rabbit-specific monoclonal antibody against Ki-67 (D3B5) (#9129; Cell Signaling, Danvers, Mass.) (1:400) overnight at 4° C. Secondary antibody was Alexa Fluor goat anti-rabbit 488 (A11034; Invitrogen, Carlsbad, Calif.) with DAPI counter-stain for nuclear staining. Proliferating cells that incorporated EdU were detected using the Click-iT EdU Imaging kit (Invitrogen, Carlsbad, Calif.). […] The cells were imaged using a Zeiss AxioImager D2 microscope or an LSM 700 confocal microscope and the percentage of positive cells was counted on three low-power (for TUNEL) or high-power (for Ki-67 and EdU) fields per well using ImageJ software.

HRECs [2] = experiment: EdU incorporation and Ki-67 staining in HRECs; type: cell-based, human
Experimental: as §1

[3] = system: human retinal microvascular endothelial cells (HRECs); experiment: In vitro cell proliferation assay (alamarBlue), HRECs; type: cell-based; settings: HREC, read-out: GI50 (median growth inhibition), HRECs
Experimental: Cells. Primary human retinal microvascular endothelial cells (HRECs) were obtained from Cell Systems, Inc. (Kirkland, Wash.), while the Rf/6a macacque choroidal endothelial cell line was obtained from ATCC (Manassas, Va.). Cells were maintained as described (Basavarajappa et al., EMBO Mol Med 9:786-801 (2017)), re-ordered at least annually, and regularly assessed for mycoplasma contamination.
In vitro cell proliferation assay. Endothelial cell proliferation was measured as described previously (Basavarajappa et al., PLoS One 9:e95694 (2014); Basavarajappa et al., EMBO Mol Med 9:786-801 (2017)). Briefly, 2.5×10^3 cells were seeded in 100 μL of growth medium and plated in each well of 96-well clear-bottom black plates and incubated for 24 hours. APX2009, APX2014, or DMSO vehicle (DMSO final concentration=1%) was added, and the plates were incubated for 24-48 hours in 100 μL complete medium at 37° C. and 5% CO2. AlamarBlue reagent (11.1 μL) was added to each well of the plate and 4 hours later fluorescence readings were taken at excitation and emission wavelengths of 560 nm and 590 nm, respectively, using a Synergy H1 plate reader (BioTek, Winooski, Vt.). GI50 was calculated using GraphPad Prism v. 7.0.

HRECs [4] = experiment: Scratch wound cell migration assay, HRECs; type: cell-based, human
Experimental: (§2) In vitro cell migration assay. Endothelial cell migration was monitored as described before (Basavarajappa et al., PLoS One 9:e95694 (2014); Basavarajappa et al., EMBO Mol Med 9:786-801 (2017)). Briefly, HRECs and Rf/6a were grown until confluency in 12-well plates. Using a sterile 10-μL micropipette tip, a scratch wound was made across the center of each well and fresh complete media containing DMSO or different concentrations of APX2009 or APX2014 compounds were added to the wells (DMSO final concentration=1%). Wells were imaged via digital brightfield microscopy at different time points, and the number of migrated cells into the scratched area was manually counted.

Rf/6a cells = experiment: Scratch wound cell migration assay, Rf/6a; type: cell-based, macaque
Experimental: as §2

Ref-1 = Ref-1 (Homo sapiens, UniProt P27695); experiment: Electrophoretic mobility shift assay (redox EMSA), Ref-1-induced AP-1 DNA binding; type: biochemical; settings: 30 min pre-incubation with purified Ref-1, read-out: IC50 for redox EMSA inhibition
Chain of Ref-1 (P27695 whole entry): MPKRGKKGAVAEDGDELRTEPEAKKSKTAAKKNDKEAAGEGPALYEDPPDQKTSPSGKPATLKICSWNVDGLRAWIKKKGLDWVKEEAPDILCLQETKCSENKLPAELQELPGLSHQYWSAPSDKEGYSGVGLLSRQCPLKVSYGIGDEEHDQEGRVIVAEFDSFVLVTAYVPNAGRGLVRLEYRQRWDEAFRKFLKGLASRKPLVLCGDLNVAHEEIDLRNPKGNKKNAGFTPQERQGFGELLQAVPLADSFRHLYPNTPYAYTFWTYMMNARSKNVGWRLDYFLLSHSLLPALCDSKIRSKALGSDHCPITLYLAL
Experimental: Electrophoretic mobility shift assays (EMSA). These assays were performed as previously described (Luo et al., Antioxid Redox Signal 10:18531867 (2008); Kelley et al., Antioxid Redox Signal 14:1387-1401 (2011); Su et al., Biochemistry 50:82-92 (2011); Luo et al., Biochemistry 51:695-705 (2012); Zhang et al., Biochemistry 52:2955-2966 (2013)). […] The EMSA assay was performed using the AP-1 target DNA sequence and AP-1 protein.

[5] = system: laser-induced choroidal neovascularization

CCC/C(=C\C1=C(OC)C(=O)c2ccccc2C1=O)C(=O)N(CC)CC [APX2009, (2E)-2-[(3-methoxy-1,4-dioxo-1,4-dihydronaphthalen-2-yl)methylidene]-N,N-diethylpentanamide]
translocation of p65 into the nucleus in response to TNF-α (NF-κB p65): dose-dependently attenuated
apoptosis by TUNEL (HRECs [1]): neither compound induced apoptosis
cells going through S phase (Ki-67 staining, EdU incorporation) (HRECs [2]): reduced the number of cells going through S phase
GI50 [3]: 1100 nM
cell migration in scratch wound assay, HRECs (HRECs [4]): significantly inhibited
cell migration in scratch wound assay, Rf/6a (Rf/6a cells): significantly inhibited
IC50 (Ref-1): 450 nM
fluorescein leakage in lesions (fluorescein angiography) ([5]; 25 mg/kg i.p., Day 14): qualitatively less fluorescein leakage
intraocular or systemic toxicity in vivo ([5]; i.p. dosing in L-CNV mice): not observed obvious intraocular or systemic toxicity
effect on L-CNV ([5]; i.p., 12.5 mg/kg twice daily for two weeks): did not reduce L-CNV
L-CNV on systemic administration (summary statement) [5]: can attenuate L-CNV

CCC/C(=C\C1=C(OC)C(=O)c2ccccc2C1=O)C(=O)NOC [APX2014, (2E)-2-[(3-methoxy-1,4-dioxo-1,4-dihydronapthalen-2-yl)methylidene]-N-methoxypentanamide]
translocation of p65 into the nucleus in response to TNF-α (NF-κB p65): dose-dependently attenuated
apoptosis by TUNEL (HRECs [1]): neither compound induced apoptosis
cells going through S phase (Ki-67 staining, EdU incorporation) (HRECs [2]): reduced the number of cells going through S phase
GI50 [3]: 110 nM
cell migration in scratch wound assay, HRECs (HRECs [4]): significantly inhibited
cell migration in scratch wound assay, Rf/6a (Rf/6a cells): significantly inhibited
IC50 (Ref-1): 200 nM
L-CNV on systemic administration (summary statement) [5]: can attenuate L-CNV
